{
  "source": "paper PMC11720353",
  "about": "“Clove Essential Oil as a Source of Antitumoral Compounds Capable of Crossing the Blood–Brain Barrier: A Focus on the Effects of β-Caryophyllene and Eugenol in a Glioblastoma Cell Line” (International Journal of Molecular Sciences, 2024)",
  "key": {"[1]": {"experiment": "in vivo", "conditions": "male, Sprague-Dawley, rat; for Kp at 60 min: R (ratio of concentration between CSF and bloodstream)", "description": "Male Sprague-Dawley rats (200–250 g) were purchased from the Charles River laboratories (Calco, Italy). BCA was administered to rats by intravenous and oral routes in order to evaluate the pharmacokinetic profiles in the bloodstream and cerebrospinal fluid (CSF). For the intravenous administration, BCA EO (84% w/w BCA content) was dissolved in ethanol to obtain a final BCA concentration of 8 mg/mL. A group (n = 4) of rats, fasted for 24 h, was anesthetized during the experimental period and then received via a femoral intravenous infusion (rate = 10 μL/min; 5 min) 50 µL of the 8 mg/mL ethanolic solution (BCA dose 2 mg/kg). This dosage was chosen basing on a previous study where BCA was intravenously administered to rats at a dose of about 1.5 mg/kg as a minor component of Artemisiae argyi Folium EO (5.3% w/w). For oral administration, BCA EO was dissolved in corn oil to obtain a final BCA concentration of 20 mg/mL. A total of 500 µL of this corn oil solution was orally administered by gavage to a group (n = 4) of rats kept fasting for 24 h (BCA dose 50 mg/kg).\nAt the end of the intravenous and oral administrations and at fixed time points, blood samples (100 μL) were collected. Moreover, CFS samples (about 30 μL) were withdrawn using the cisternal puncture method previously described. This method requires a single needle stick and allows the collection of serial (about 30 μL) CSF samples that are virtually blood-free. A total volume of a maximum of 120 μL of CSF/rat (i.e., four 30 μL samples/rat) was collected during the experimental session, choosing the time points (n = 4) to allow the restoration of the CSF physiological volume. The CSF samples (10 μL) were immediately analyzed via HPLC (see below) for the quantification of BCA. For the BCA analysis in the bloodstream, the blood samples (n = 4) were immediately added to 200 μL of ice-cold CH3CN, then 100 μL of the internal standard dissolved in CH3CN (100 μM GER-UDCA, obtained by the conjugation of geraniol with ursodeoxycholic acid) was further inserted. The samples were centrifuged at 16,000× g for 5 min, then about 300 μL of the supernatant was withdrawn and further centrifuged. Finally, 10 μL was analyzed via HPLC (see below) for BCA quantification. A blood sample (100 μL) was collected from each rat before the administration of the compound and was used as a control. The control samples were immediately added to 300 μL of ice-cold CH3CN in the absence of the internal standard and then treated as described above.\nThe BCA was quantified by the HPLC method, using a chromatographic apparatus that consisted of a modular system (model LC-10 AD VD pump and model SPD-10A VP variable wavelength UV−vis detector; Shimadzu, Kyoto, Japan) and an injection valve with a 20 μL sample loop (model 7725; Rheodyne, IDEX, Torrance, CA, USA). The separations were performed on a 5 μm Hypersil BDS C-18 column (150 mm × 4.6 mm i.d.; ThermoFisher Scientific S.p.A., Milan, Italy) equipped with a guard column packed with the same Hypersil material at room temperature by injecting 10 µL of the samples into the apparatus. Data were acquired and processed using CLASS-VP software, version 7.2.1 (Shimadzu Italia, Milan, Italy), installed on a personal computer. The mobile phase consisted of an isocratic mixture of water and acetonitrile at a ratio of 10:90 (v/v), with a flow rate of 1 mL/min. The detector was set at 205 nm. The retention times obtained were 7.5 min for BCA and 5.6 min for GER-UDCA.\nThe chromatographic precision was evaluated by repeated analyses (n = 6) of the same sample solution containing 100 μM (20.435 µg/mL) BCA dissolved in a mixture of water and CH3CN 25:75 (v/v). The chromatographic precision, expressed as the relative standard deviation (RSD) value, was 0.84%. […]"}, "[2]": {"test_system": "U87 cells", "experiment": "Clonogenic cell survival assay", "type": "cell-based, human", "conditions": "EU 200 µM, BCA 125 µM, alone or in combination, 14 days", "description": "An evaluation of the antiproliferative effect via clonogenic assay on the tumoral U87 cells was performed using an adapted protocol from the previously described procedure. Briefly, U87 cells (0.8 × 10^3 cells/well) were seeded into 6-well plates and incubated for 24 h. After the incubation, based on the results obtained from the cell viability assay and synergistic score, the cells were treated either with EO single compounds diluted in ethanol alone (EU 200 µM and BCA 125 µM) or in combination for 14 days with the media being changed every 2/3 days. The cells without treatment were considered the control condition. Following the incubation, the cells were washed with PBS, fixed with paraformaldehyde (PFA) and stained with 0.1% crystal violet solution. The number of colonies was counted by microscopy, and the surviving fraction (SF) was calculated as the mean colonies/number of cells seeded."}, "[3]": {"conditions": "iv, 2 mg/kg, cerebrospinal fluid (CSF)"}, "[4]": {"conditions": "po, 50 mg/kg, cerebrospinal fluid (CSF)"}},
  "data": [
    {"smiles": "C=C1CC/C=C(\\C)CC[C@@H]2[C@@H]1CC2(C)C", "note": "[BCA, β-Caryophyllene]", "values": [
      {"measurement": "bioavailability", "setting": "[1]; F (absolute bioavailability)", "result": "2.11 ± 0.03", "unit": "%"},
      {"measurement": "half-life", "setting": "[1]; iv, 2 mg/kg", "result": "49.7 ± 2", "unit": "min"},
      {"measurement": "time at which CSF concentration decreased to zero", "setting": "[1]; iv, 2 mg/kg", "result": "≤ 150", "unit": "min"},
      {"measurement": "time at which bloodstream concentration decreased to zero", "setting": "[1]; iv, 2 mg/kg", "result": "≤ 180", "unit": "min"},
      {"measurement": "AUC", "setting": "[1]; iv, 2 mg/kg, bloodstream", "result": 108000, "unit": "ng·h/mL"},
      {"measurement": "AUC", "setting": "[1]; [3]", "result": 6290, "unit": "ng·h/mL"},
      {"measurement": "Cmax", "setting": "[1]; [3]", "result": "8000 ± 800", "unit": "ng/mL"},
      {"measurement": "Kp at 60 min", "setting": "[1]; iv, 2 mg/kg", "result": "0.08 ± 0.01"},
      {"measurement": "Kp at 30 min", "setting": "[1]; iv, 2 mg/kg, R (ratio of concentration between CSF and bloodstream) at CSF Tmax", "result": "0.13 ± 0.01"},
      {"measurement": "Tmax", "setting": "[1]; [3]", "result": 0.5, "unit": "h"},
      {"measurement": "Cmax, bloodstream", "setting": "[1]; po, 50 mg/kg", "result": "22.53 ± 0.09", "unit": "µg/mL"},
      {"measurement": "time at which CSF concentration decreased to zero", "setting": "[1]; po, 50 mg/kg", "result": 120, "unit": "min"},
      {"measurement": "time at which bloodstream concentration decreased to 0", "setting": "[1]; po, 50 mg/kg", "result": 300, "unit": "min"},
      {"measurement": "R (ratio of concentration between CSF and bloodstream) at CSF Tmax", "setting": "[1]; po, 50 mg/kg, 90 min", "result": "0.019 ± 0.002"},
      {"measurement": "AUC", "setting": "[1]; po, 50 mg/kg, bloodstream", "result": 56800, "unit": "ng·h/mL"},
      {"measurement": "AUC", "setting": "[1]; [4]", "result": 313, "unit": "ng·h/mL"},
      {"measurement": "Cmax", "setting": "[1]; po, 50 mg/kg, bloodstream", "result": "22500 ± 900", "unit": "ng/mL"},
      {"measurement": "Cmax", "setting": "[1]; [4]", "result": "420 ± 40", "unit": "ng/mL"},
      {"measurement": "Kp at 60 min", "setting": "[1]; po, 50 mg/kg", "result": "~0.01"},
      {"measurement": "Kp at 90 min", "setting": "[1]; po, 50 mg/kg, R (ratio of concentration between CSF and bloodstream) at CSF Tmax", "result": "~0.02"},
      {"measurement": "Tmax", "setting": "[1]; po, 50 mg/kg, bloodstream", "result": 1, "unit": "h"},
      {"measurement": "Tmax", "setting": "[1]; [4]", "result": 1.5, "unit": "h"},
      {"measurement": "decrease of clonal growth / colony formation with respect to control", "setting": "[2]", "result": "−63.8", "unit": "%"}
    ]}
  ]
}
